This is an account of results in paper PMC4885489, “Prediction of Drug-Drug Interactions Arising from CYP3A induction Using a Physiologically Based Dynamic Model” (Drug Metabolism and Disposition, 2016).

SMILES strings stand for the structures. Read-outs that look alike come from different tables or passages of the source.

The conditions of data set [1]: cited from earlier work.
A further data set relates to CYP3A4. As to conditions: human, in vivo, po, cited from earlier work.
The conditions of data set [2]: cited from earlier work. This is another data set of the same source.
A further data set deals with rCYP3A5. As to conditions: read-out: rCYP3A5 Km, corrected for fumic & ISEF, ref Meta-analysis (Hirota et al., 2001), (Galetin et al., 2004) (Williams et al., 2002), cited from earlier work.
The conditions of data set [3]: ref (Smith et al., 1984); (Lin et al., 1988); (Kirkwood et al., 1991); (Amchin et al., 1998); (Greenblatt et al., 1983); cited from earlier work.
In data set [4] the test system is CYP3A. The settings on record: mean of four human hepatocyte donors; three-parameter fit; Indmax = Emax + 1.
For data set [5], the system named is CYP3A. Put plainly: in vitro. As to conditions: human, cryopreserved human hepatocytes.
Data set [6] relates to CYP3A. As to conditions: mean of four human hepatocyte donors; three-parameter fit; Indmax = Emax + 1. This is another data set of the same source.
Data set [7] has as its system CYP3A. Nature of the data set: in vitro. The settings on record: human, cryopreserved human hepatocytes, probe testosterone (6β-hydroxytestosterone formation).
For data set [8] the following is noted: ref (Burman et al., 2001); cited from earlier work.

As to `C=C[C@@]1(O)CN2CC[C@H]1C[C@@H]2[C@@H](O)c1ccnc2ccc(OC)cc12` [3-OH Quinidine], in [1] (in vivo), the CLR is reported as 16.7 L/h and the CLpo is 52.6 L/h.

Usually Km stands for the substrate concentration at which the rate is half of its maximum. `Cc1nnc2n1-c1ccc(Cl)cc1C(c1ccccc1)=NC2` [Alprazolam, alprazolam]: the CLR in data set [1] (in vivo) is 0.678 L/h. In addition, the AUC in the data set with CYP3A4 (1 mg) is 242 (31.3) ng/mL.h. Besides, the AUCi in the data set on CYP3A4 is listed as 28.4 (23.9) ng/mL.h. Besides, the “Vss (Minimal PBPK)” value in data set [2] (in vivo) is recorded as 0.99 L/kg. The Km in the data set with rCYP3A5 (4-hydroxylation) was 211 µM; in the data set on rCYP3A5 (second pathway, printed 'oxylation') it was 205 µM. For the same compound, the ka in data set [3] was 3.56 h⁻¹.

For `NC(=O)N1c2ccccc2C2OC2c2ccccc21` (stereo not shown) [Carbamazepine-10,11-epoxide], in [1] (in vivo), the CLR was 0.14 L/h and the CLpo is 6.07 L/h.

Usually EC50 stands for the midpoint of the concentration-response curve. On to `O=C1Nc2ccc(Cl)cc2[C@@](C#CC2CC2)(C(F)(F)F)O1` [Efavirenz], for which the “mRNA Indmax” value in the data set on CYP3A [4] was found to be […]. Further, the figures for the 50% effective concentration (EC50) with CYP3A [5] and in the data set with CYP3A [7] were […] and […], respectively. Further, the “Activity Indmax” value in the data set with CYP3A [6] came out at […].

In the case of `CO[C@H]1/C=C/O[C@@]2(C)Oc3c(C)c(O)c4c(O)c(c(/C=N/N5CCN(C)CC5)c(O)c4c3C2=O)NC(=O)/C(C)=C\C=C\[C@H](C)[C@H](O)[C@@H](C)[C@@H](O)[C@@H](C)[C@H](OC(C)=O)[C@@H]1C` [Rifampicin, rifampicin], the CLiv in data set [1] (in vivo) is 7 L/h. Besides, the CLR in data set [1] (ref Polk 2001) is reported as 1.2 L/h. For the same compound, the “Vss (Minimal PBPK)” value in data set [2] (ref (Loos et al., 1985)) was 0.33 L/kg. Besides, the fu in data set [8] was 0.15.

As to `Cc1nnc2n1-c1ccc(Cl)cc1C(c1ccccc1Cl)=NC2` [Triazolam, triazolam], in the data set with CYP3A4 (0.5 mg), the AUC is listed as 14.8 (21.4) ng/mL.h. In the data set with CYP3A4, the “1/AUC Ratio” value is 20.0 and the AUCi was 0.74 (59.8) ng/mL.h.
